“Also recorded” adds a separate entry of the source.
How the values were obtained:
[1] = test system: primary human dermal fibroblasts; test: Fibroblast monolayer scratch assay, human fibroblasts; format: cell-based; conditions: human fibroblasts from three female donors; 10^−10M to 10^−6 M; pilot experiments
Method: Human skin was transferred to the laboratory in holding media (DMEM containing 4% penicillin-streptomycin and Amphotericin B solution) within 30 minutes of collection. Once defatted, the skin was rinsed in HBSS with 4% PSA followed by DPBS without antibiotics, then cut into thin strips and floated on 0.2% Dispase II in DPBS overnight at 4° C., followed by manual separation of the epidermis from the dermis. Primary human epidermal keratinocytes and primary human dermal fibroblasts were then isolated.
Confluent wells of both primary keratinocytes and fibroblasts were subjected to a highly validated scratch wounding procedure (using a 1 mL sterile filter tip). Post-scratching, cells were rinsed with DPBS and cell-specific media containing treatments added to each well. Cells were imaged on a ptychographic live cell imaging platform (Livecyte 2™, Phasefocus) for 24-48 hours. Automated tracking of individual unlabeled cells will be combined with 3D cell measurements to quantify a range of wound-relevant cell parameters including scratch closure rate.
Dose range finding experiments were conducted with E4 (10^−10M to 10^−6M) and E2 with and without Mitomycin C (MMC, to inhibit proliferation) using vehicle as negative controls.

[2] = test system: mouse BMDM (bone marrow derived monocytes); test: Immune cell polarization (qPCR of M1/M2 markers), mouse BMDM; format: cell-based; conditions: activated mouse BMDM; qPCR markers NOS2, ARG1
Method: Immune cell polarization was evaluated in vitro using markers for M1/TH-1 (NOS2) and M2/TH-2 (ARG1) phenotype with human monocytes and mouse monocytes (BMDM bone marrow derived monocytes).
An experiment was conducted to evaluate the anti-inflammatory effects of E4 or vehicle (negative control). qPCR methodology was used to assess the effects of E2 and E4 on immune cell polarization using well validated marker of pro-inflammatory (NOS2 for MI/TH-1 phenotype) and anti-inflammatory (ARG1 for ME/TH-2 phenotype) activity.

IL-6 release from NHEKs = test: PMA/A23187-induced IL-6 release from NHEKs (ELISA, normalized to viability); format: cell-based, human; conditions: 24 h, vs stimulated EtOH 0.1% condition
Method: The Normal Human foreskin-derived Epidermal Keratinocytes (NHEKs, Lonza, 00192906), isolated from foreskin of 3 Caucasian donors, were grown in Epilife medium (Fisher Scientific, M-EPI-500-A) supplemented with Human Keratinocyte Growth Supplement (HKGS, Fisher Scientific, S-001-5) and antibiotics (Gentamycin, Fisher Scientific, 15710-049). The cells were maintained in a humidified incubator at 37° C. with a 5% CO2 atmosphere.
E4 and E2, provided as powder, were dissolved in 100% ethanol at 0.1M. They were then further diluted in ethanol and in culture medium to reach the appropriate concentrations. […] Practically, stock solutions 1000-fold concentrated were prepared in 100% ethanol, aliquoted and stored at −20° C. until cell application.
In order to induce the release of IL-6, NHEKs were exposed for 24 h with phorbol myristate acetate (PMA) at 10 ng/mL, in combination with calcium ionophore A23187 (Sigma Aldrich, C5722) at 2 μM. The treatments with the test or reference items were performed simultaneously with the inflammatory challenge. […] E4 was applied at 10^−4, 10^−5, 10^−6, 10^−7 and 10^−8 M and E2 at 10^−5, 10^−6, 10^−7, 10^−8 and 10^−9 M EtOH at 0.1% was tested as solvent control. Dexamethasone at 10 μM was used as anti-inflammatory reference. At the end of 24 h treatment, supernatants were harvested and stored at −20° C., and cell viability assay was assessed by MTS (see section 5). The kinetics of the treatments is outlined in FIG. 12. All the treatments were performed in triplicates (n=3).
The quantification of the release of inflammatory markers was performed using specific ELISA kits, based on standard curves, according to supplier's specifications. The results were then normalized to the corresponding cell viability (obtained by MTS assay).
The supplier's reference of the kits used for IL-6 quantification is as follows: IL-6, BioTechne, D6050.
At the end of the treatments and culture media collection, the viability of the cells was evaluated using the MTS (3-(4,5-dimethythiazol-2-yl)-5-(3-carboxy-methoxyphenyl)-2-(4-sulfophenyl)-2H-tetrazolium) assay. The effects of the treatments were compared to the untreated control condition and to the solvent control (EtOH 0.1%). The viability data were used in order to normalize the quantities of released inflammatory mediators.
NHEKs were treated as described in the methodology section. The quantification of IL-6 by ELISA was performed from the collected supernatants, following the instructions of the kit provider. Only 3 concentrations of the test items (chosen in accordance with the Sponsor following the results of the viability assay) were assessed in the ELISA.

[3] = in humans; unlike other estrogens; cited from earlier work

Question: Which “fibroblast migration / in vitro wound closure” value [1] does the source give for C[C@]12CC[C@@H]3c4ccc(O)cc4CC[C@H]3[C@@H]1[C@@H](O)[C@@H](O)[C@@H]2O [E4, 1,3,5 (10)-estratrien-3,15alpha,16alpha,17beta-tetrol] here?
Answer: The value was “promotes in vitro wound closure to a similar extent as E2; also recorded: as effective as E2 in promoting fibroblast migration”.

Question: And the “immune cell polarization (monocyte subtype M1/M2)” value [2]?
Answer: The value was “switch from monocyte subtype M1 (pro-inflammatory) to subtype M2 (healing)”.

Question: What about the “PMA/A23187-induced IL-6 release” value (IL-6 release from NHEKs; 10^−5 M) of the same compound?
Answer: The value was “significantly and strongly decreased the release of IL-6; also recorded: strongly and significantly diminished”.

Question: And the “PMA/A23187-induced IL-6 release” value (IL-6 release from NHEKs; 10^−6 M)?
Answer: Its value is “significantly and strongly decreased the release of IL-6; also recorded: strongly and significantly diminished”.

Question: And the “PMA/A23187-induced IL-6 release” value (IL-6 release from NHEKs; 10^−7 M)?
Answer: Its value is “significantly and strongly decreased the release of IL-6; also recorded: strongly and significantly diminished”.

Question: What about the “impact on lipid and triglyceride level” value [3] of the same compound?
Answer: Its value is “very limited impact on lipid and triglyceride level”.
